Results: patent US20260132132A1, “3A,4,5,6-TETRAHYDRO-1 H-PYRAZOLO[3,4-C]PYRIDIN-7(7AH)-ONE DERIVATIVES AS FACTOR XIIA INHIBITORS” (KALVISTA PHARMACEUTICALS LIMITED, priority 2022, published 2026)
pIC50: −log10 of the molar value.

Legend:
[1] = biological target: T1, Human Factor XIIa (hFXIIa) (Homo sapiens, UniProt P00748); experiment: Determination of Human Factor XIIa (hFXIIa) inhibition, fluorogenic substrate IC50 assay; format: biochemical; conditions: fluorogenic substrate H-DPro-Phe-Arg-AFC at Km, 25° C., read-out: Human FXIIa IC50
T1 construct: purchased Enzyme Research Laboratories
T1 sequence (P00748 373-615 limits assumed): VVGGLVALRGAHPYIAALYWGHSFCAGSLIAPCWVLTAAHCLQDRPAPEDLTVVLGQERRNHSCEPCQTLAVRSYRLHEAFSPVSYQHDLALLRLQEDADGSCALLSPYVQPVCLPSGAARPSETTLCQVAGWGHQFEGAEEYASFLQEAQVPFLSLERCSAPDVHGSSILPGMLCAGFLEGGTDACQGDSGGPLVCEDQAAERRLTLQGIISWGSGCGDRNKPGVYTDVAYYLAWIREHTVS
T1 sequence (P00748 20-372 partner limits assumed): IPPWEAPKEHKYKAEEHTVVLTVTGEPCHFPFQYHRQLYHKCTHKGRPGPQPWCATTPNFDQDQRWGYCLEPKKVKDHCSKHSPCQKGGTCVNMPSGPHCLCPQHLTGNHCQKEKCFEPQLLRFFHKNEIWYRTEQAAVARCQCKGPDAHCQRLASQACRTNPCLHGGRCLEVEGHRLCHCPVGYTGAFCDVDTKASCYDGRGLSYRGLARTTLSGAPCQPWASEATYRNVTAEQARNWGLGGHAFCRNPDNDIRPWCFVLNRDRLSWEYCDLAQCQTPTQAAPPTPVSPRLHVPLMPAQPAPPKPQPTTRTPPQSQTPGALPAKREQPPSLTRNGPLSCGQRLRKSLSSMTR
Procedure: Determination of Human Factor XIIa (hFXIIa) inhibition
The Km for the cleavage of the substrate by hFXIIa was determined by standard transformation of the Michaelis-Menten equation, with subsequent inhibition assays performed at substrate Km concentration.

[2] = biological target: FXa (Homo sapiens, UniProt P00742); experiment: Related protease inhibition: FXa, fluorogenic substrate; format: biochemical; conditions: fluorogenic substrate at Km, 25° C.; H1-H3 = % activity at 40 μM
FXa, sequence (P00742 235-488 limits assumed): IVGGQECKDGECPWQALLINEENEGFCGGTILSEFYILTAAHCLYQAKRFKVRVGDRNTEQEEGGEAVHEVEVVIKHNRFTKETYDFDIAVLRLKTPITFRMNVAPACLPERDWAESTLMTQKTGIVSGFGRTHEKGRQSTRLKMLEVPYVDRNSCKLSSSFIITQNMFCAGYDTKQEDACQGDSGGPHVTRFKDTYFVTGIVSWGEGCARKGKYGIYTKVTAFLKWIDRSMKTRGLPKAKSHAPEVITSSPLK
FXa, sequence (P00742 41-179 partner limits assumed): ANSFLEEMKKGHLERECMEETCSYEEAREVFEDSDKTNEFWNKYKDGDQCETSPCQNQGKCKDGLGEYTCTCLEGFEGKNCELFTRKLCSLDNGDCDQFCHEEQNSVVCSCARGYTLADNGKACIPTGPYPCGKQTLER
Procedure: Human serine protease enzyme Plasma Kallikrein, KLK1, FXa, Plasmin, Thrombin and Trypsin were assayed for enzymatic activity using an appropriate fluorogenic substrate at Km concentration, FXIa at fixed substrate concentration of 100 μM and various concentrations of the test compound.

| Compound | pIC50 [1] | pIC50 [2] |
| --- | --- | --- |
| COC(=O)C(NC(=O)c1nn(-c2cccc(Cl)c2)c2c1CCN(c1ccc3c(c1)C(=O)N(C)CC3)C2=O)c1cccnc1 (centres unmarked) [Example 1325, methyl 2-(1-(3-chlorophenyl)-6-(2-methyl-1-oxo-1,2,3,4-tetrahydroisoquinolin-7-yl)-7-oxo-4,5,6,7-tetrahydro-1H-pyrazolo[3,4-c]pyridine-3-carboxamido)-2-(pyridin-3-yl)acetate] | 6.52 to 7.00 | 5.52 to 6.00 |
| CN1CCc2ccc(N3CCc4c(C(=O)NC(C(=O)O)c5cccnc5)nn(-c5cccc(Cl)c5)c4C3=O)cc2C1=O (centres unmarked) [Example 1328, 2-(1-(3-chlorophenyl)-6-(2-methyl-1-oxo-1,2,3,4-tetrahydroisoquinolin-7-yl)-7-oxo-4,5,6,7-tetrahydro-1H-pyrazolo[3,4-c]pyridine-3-carboxamido)-2-(pyridin-3-yl)acetic acid] | 6.00 to 6.52 | 5.00 to 5.52 |
| O=C(O)CN1CCc2ccc(N3CCc4c(C(=O)NCC5CC5)nn(-c5cccc(Cl)c5)c4C3=O)cc2C1=O [Example 1330, 2-(7-(1-(3-chlorophenyl)-3-((cyclopropylmethyl)carbamoyl)-7-oxo-1,4,5,7-tetrahydro-6H-pyrazolo[3,4-c]pyridin-6-yl)-1-oxo-3,4-dihydroisoquinolin-2(1H)-yl)acetic acid] | 5.52 to 6.00 | < 4.40 |
| NC(=O)CN1CCc2ccc(N3CCc4c(C(=O)NCC5CC5)nn(-c5cccc(Cl)c5)c4C3=O)cc2C1=O [Example 1333, 6-(2-(2-amino-2-oxoethyl)-1-oxo-1,2,3,4-tetrahydroisoquinolin-7-yl)-1-(3-chlorophenyl)-N-(cyclopropylmethyl)-7-oxo-4,5,6,7-tetrahydro-1H-pyrazolo[3,4-c]pyridine-3-carboxamide] | 6.00 to 6.52 | < 5.40 |
| CN1CCc2ccc(N3CCc4c(C(=O)N5CCC5)nn(-c5cccc(Cl)c5)c4C3=O)cc2C1=O [Example 1335, 7-(3-(azetidine-1-carbonyl)-1-(3-chlorophenyl)-7-oxo-1,4,5,7-tetrahydro-6H-pyrazolo[3,4-c]pyridin-6-yl)-2-methyl-3,4-dihydroisoquinolin-1(2H)-one] | 5.52 to 6.00 | < 4.40 |
| CN1CCc2ccc(N3CCc4c(C(=O)N[C@H]5CCOC5)nn(-c5cccc(Cl)c5)c4C3=O)cc2C1=O [Example 1336, (S)-1-(3-chlorophenyl)-6-(2-methyl-1-oxo-1,2,3,4-tetrahydroisoquinolin-7-yl)-7-oxo-N-(tetrahydrofuran-3-yl)-4,5,6,7-tetrahydro-1H-pyrazolo[3,4-c]pyridine-3-carboxamide] | 6.00 to 6.52 | < 4.40 |
| C[C@H](CO)NC(=O)c1nn(-c2cccc(Cl)c2)c2c1CCN(c1ccc3c(c1)C(=O)N(C)CC3)C2=O [Example 1337, (R)-1-(3-chlorophenyl)-N-(1-hydroxypropan-2-yl)-6-(2-methyl-1-oxo-1,2,3,4-tetrahydroisoquinolin-7-yl)-7-oxo-4,5,6,7-tetrahydro-1H-pyrazolo[3,4-c]pyridine-3-carboxamide] | 6.00 to 6.52 | < 4.40 |
| CN1CCc2ccc(N3CCc4c(C(=O)N[C@@H]5CCOC5)nn(-c5cccc(Cl)c5)c4C3=O)cc2C1=O [Example 1338, (R)-1-(3-chlorophenyl)-6-(2-methyl-1-oxo-1,2,3,4-tetrahydroisoquinolin-7-yl)-7-oxo-N-(tetrahydrofuran-3-yl)-4,5,6,7-tetrahydro-1H-pyrazolo[3,4-c]pyridine-3-carboxamide] | 6.00 to 6.52 | < 4.40 |

Now from value to molecule:

| pIC50 [1] | pIC50 [2] | Compound |
| --- | --- | --- |
| 7.00 to 8.00 | 5.00 to 5.52 | CCN1CCOc2ccc(N3CCc4c(C(=O)NCc5cc(C)n(C)n5)nn(-c5cccc(Cl)c5)c4C3=O)cc2C1=O [Example 1317, 1-(3-chlorophenyl)-N-((1,5-dimethyl-1H-pyrazol-3-yl)methyl)-6-(4-ethyl-5-oxo-2,3,4,5-tetrahydrobenzo[f][1,4]oxazepin-7-yl)-7-oxo-4,5,6,7-tetrahydro-1H-pyrazolo[3,4-c]pyridine-3-carboxamide] |
| 7.00 to 8.00 | 5.00 to 5.52 | CCN1CCOc2ccc(N3CCc4c(C(=O)NCc5cnccc5C)nn(-c5cccc(Cl)c5)c4C3=O)cc2C1=O [Example 1318, 1-(3-chlorophenyl)-6-(4-ethyl-5-oxo-2,3,4,5-tetrahydrobenzo[f][1,4]oxazepin-7-yl)-N-((4-methylpyridin-3-yl)methyl)-7-oxo-4,5,6,7-tetrahydro-1H-pyrazolo[3,4-c]pyridine-3-carboxamide] |
| 7.00 to 8.00 | 5.52 to 6.00 | Cc1cc(CNC(=O)c2nn(-c3cccc(Cl)c3)c3c2CCN(c2ccc4c(c2)C(=O)N(C)CCO4)C3=O)nn1C [Example 1319, 1-(3-chlorophenyl)-N-((1,5-dimethyl-1H-pyrazol-3-yl)methyl)-6-(4-methyl-5-oxo-2,3,4,5-tetrahydrobenzo[f][1,4]oxazepin-7-yl)-7-oxo-4,5,6,7-tetrahydro-1H-pyrazolo[3,4-c]pyridine-3-carboxamide] |
| 6.52 to 7.00 | < 4.40 | Cc1cc(CNC(=O)c2nn(-c3cccc(Cl)c3)c3c2CCN(c2ccc4c(c2)C(=O)N(C(C)C)CCO4)C3=O)nn1C [Example 1320, 1-(3-chlorophenyl)-N-((1,5-dimethyl-1H-pyrazol-3-yl)methyl)-6-(4-isopropyl-5-oxo-2,3,4,5-tetrahydrobenzo[f][1,4]oxazepin-7-yl)-7-oxo-4,5,6,7-tetrahydro-1H-pyrazolo[3,4-c]pyridine-3-carboxamide] |
| 7.00 to 8.00 | 5.52 to 6.00 | Cc1cc(CNC(=O)c2nn(-c3cccc(Cl)c3)c3c2CCN(c2ccc4c(c2)C(=O)N(CC(N)=O)CC4)C3=O)n[nH]1 [Example 1321, 6-(2-(2-amino-2-oxoethyl)-1-oxo-1,2,3,4-tetrahydroisoquinolin-7-yl)-1-(3-chlorophenyl)-N-((5-methyl-1H-pyrazol-3-yl)methyl)-7-oxo-4,5,6,7-tetrahydro-1H-pyrazolo[3,4-c]pyridine-3-carboxamide] |
| 6.52 to 7.00 | < 4.40 | Cc1ccnc(C)c1CNC(=O)c1nn(-c2cccc(Cl)c2)c2c1CCN(c1ccc3c(c1)C(=O)N(CCO)CC3)C2=O [Example 1326, 1-(3-chlorophenyl)-N-((2,4-dimethylpyridin-3-yl)methyl)-6-(2-(2-hydroxyethyl)-1-oxo-1,2,3,4-tetrahydroisoquinolin-7-yl)-7-oxo-4,5,6,7-tetrahydro-1H-pyrazolo[3,4-c]pyridine-3-carboxamide] |
| 6.52 to 7.00 | < 4.40 | Cc1ccncc1C(C)NC(=O)c1nn(-c2cccc(Cl)c2)c2c1CCN(c1ccc3c(c1)C(=O)N(CCO)CC3)C2=O (centres unmarked) [Example 1327, 1-(3-chlorophenyl)-6-(2-(2-hydroxyethyl)-1-oxo-1,2,3,4-tetrahydroisoquinolin-7-yl)-N-(1-(4-methylpyridin-3-yl)ethyl)-7-oxo-4,5,6,7-tetrahydro-1H-pyrazolo[3,4-c]pyridine-3-carboxamide] |
| 6.00 to 6.52 | < 5.40 | Cc1cc(CNC(=O)c2nn(-c3cccc(Cl)c3)c3c2CCN(c2ccc4c(c2)C(=O)N(CCO)[C@H](C)CO4)C3=O)nn1C [Example 1329, (R)-1-(3-chlorophenyl)-N-((1,5-dimethyl-1H-pyrazol-3-yl)methyl)-6-(4-(2-hydroxyethyl)-3-methyl-5-oxo-2,3,4,5-tetrahydrobenzo[f][1,4]oxazepin-7-yl)-7-oxo-4,5,6,7-tetrahydro-1H-pyrazolo[3,4-c]pyridine-3-carboxamide] |
| 6.00 to 6.52 | < 5.40 | Cc1cc(CNC(=O)c2nn(-c3cccc(Cl)c3)c3c2CCN(c2ccc4c(c2)C(=O)N(CC(=O)O)CC4)C3=O)nn1C [Example 1331, 2-(7-(1-(3-chlorophenyl)-3-(((1,5-dimethyl-1H-pyrazol-3-yl)methyl)carbamoyl)-7-oxo-1,4,5,7-tetrahydro-6H-pyrazolo[3,4-c]pyridin-6-yl)-1-oxo-3,4-dihydroisoquinolin-2(1H)-yl)acetic acid] |
| 6.00 to 6.52 | < 5.40 | Cc1cc(CNC(=O)c2nn(-c3cccc(Cl)c3)c3c2CCN(c2ccc4c(c2)C(=O)N(CC(=O)O)CC4)C3=O)n[nH]1 [Example 1332, 2-(7-(1-(3-chlorophenyl)-3-(((5-methyl-1H-pyrazol-3-yl)methyl)carbamoyl)-7-oxo-1,4,5,7-tetrahydro-6H-pyrazolo[3,4-c]pyridin-6-yl)-1-oxo-3,4-dihydroisoquinolin-2(1H)-yl)acetic acid] |
| 6.00 to 6.52 | < 4.40 | CNC(=O)c1nn(-c2cccc(Cl)c2)c2c1CCN(c1ccc3c(c1)C(=O)N(C)CC3)C2=O [Example 1334, 1-(3-chlorophenyl)-N-methyl-6-(2-methyl-1-oxo-1,2,3,4-tetrahydroisoquinolin-7-yl)-7-oxo-4,5,6,7-tetrahydro-1H-pyrazolo[3,4-c]pyridine-3-carboxamide] |
